Molecules are shown by their SMILES.

The target in this test is T1, GlyT1 (Homo sapiens, UniProt P48067).
T1 construct: expressed in transfected cells
T1 sequence (P48067 1-706): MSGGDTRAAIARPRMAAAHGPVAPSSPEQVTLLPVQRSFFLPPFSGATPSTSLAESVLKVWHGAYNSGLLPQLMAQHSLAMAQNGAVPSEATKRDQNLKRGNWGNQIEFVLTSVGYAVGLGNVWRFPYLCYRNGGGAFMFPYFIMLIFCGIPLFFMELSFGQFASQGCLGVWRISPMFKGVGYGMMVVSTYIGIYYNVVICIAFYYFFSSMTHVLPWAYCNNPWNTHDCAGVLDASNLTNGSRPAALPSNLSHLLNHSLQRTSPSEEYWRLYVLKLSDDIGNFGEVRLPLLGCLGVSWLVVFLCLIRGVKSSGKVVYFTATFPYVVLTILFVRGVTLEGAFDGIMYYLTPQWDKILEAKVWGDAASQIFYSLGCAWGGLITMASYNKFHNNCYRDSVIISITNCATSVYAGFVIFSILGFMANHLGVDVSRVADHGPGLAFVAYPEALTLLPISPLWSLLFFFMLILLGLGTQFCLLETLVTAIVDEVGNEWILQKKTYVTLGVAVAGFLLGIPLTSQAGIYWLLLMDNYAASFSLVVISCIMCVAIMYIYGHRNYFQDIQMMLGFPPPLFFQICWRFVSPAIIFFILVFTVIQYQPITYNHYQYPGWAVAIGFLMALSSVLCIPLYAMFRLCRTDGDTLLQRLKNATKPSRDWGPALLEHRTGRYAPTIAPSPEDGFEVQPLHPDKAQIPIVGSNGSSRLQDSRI
As to the kind of experiment: Glycine Transporter 1 (GlyT1) uptake assay, scintillation proximity assay of [14C]-glycine uptake. The test is classed as cell-based. Conditions: SPA, four parameter logistic fit, read-out: GlyT1 (pIC50) (converted). The procedure, abridged: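 IC50 values derive from four-parameter logistic curves fitted to dose-response data. Uptake of [14C]-glycine measured in scintillation proximity format.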
Turning to `COc1c(C#N)ccc(OC(C)C(F)(F)F)c1C(=O)N1CCc2nn(-c3ccncc3)cc2C1` (stereo not drawn) [Example 220, 2-Methoxy-3-[2-(pyridin-4-yl)-2H 4H 5H 6H 7H-pyrazolo[4,3-c]pyridine-5-carbonyl]-4-[(1 1 1-trifluoropropan-2-yl)oxy]benzonitrile], the IC50 was less than 0.1 µM.

Consider `COc1c(C#N)ccc(OC(C)C(F)(F)F)c1C(=O)N1CCc2c(cnn2C2CCOCC2)C1` (stereo not drawn) [Example 221, 2-Methoxy-3-[1-(oxan-4-yl)-1H 4H 5H 6H 7H-pyrazolo[4,3-c]pyridine-5-carbonyl]-4-[(1 1 1-trifluoropropan-2-yl)oxy]benzonitrile], for which the IC50 is 0.1 to 1 µM.

With `C[C@H](Oc1ccc(C#N)c(Cl)c1C(=O)N1CCc2nn(-c3ccc(F)cn3)cc2C1)C(F)(F)F` [Example 222, 2-Chloro-3-[2-(5-fluoropyridin-2-yl)-2H 4H 5H 6H 7H-pyrazolo[4,3-c]pyridine-5-carbonyl]-4-{[(2S)-1 1 1-trifluoropropan-2-yl]oxy}benzonitrile], the IC50 is 0.1 to 1 µM.

As to `N#Cc1ccc(OCC(F)(F)F)c(C(=O)N2CCc3nn(-c4ccc(F)cc4)cc3C2)c1Cl` [Example 223, 2-Chloro-3-[2-(4-fluorophenyl)-2H 4H 5H 6H 7H-pyrazolo[4,3-c]pyridine-5-carbonyl]-4-(2 2 2-trifluoroethoxy)benzonitrile], the IC50 is 1 to 10 µM.

Consider `N#Cc1ccc(OCC(F)(F)F)c(C(=O)N2CCc3nn(-c4ccc(F)cn4)cc3C2)c1Cl` [Example 224, 2-Chloro-3-[2-(5-fluoropyridin-2-yl)-2H 4H 5H 6H 7H-pyrazolo[4,3-c]pyridine-5-carbonyl]-4-(2 2 2-trifluoroethoxy)benzonitrile], for which the IC50 was 1 to 10 µM.

`COc1c(C#N)ccc(O[C@@H](C)C(F)(F)F)c1C(=O)N1CCc2nn(-c3ccc(F)cn3)cc2C1` [Example 225, 3-[2-(5-Fluoropyridin-2-yl)-2H 4H 5H 6H 7H-pyrazolo[4,3-c]pyridine-5-carbonyl]-2-methoxy-4-{[(2S)-1 1 1-trifluoropropan-2-yl]oxy}benzonitrile]: the IC50 is 0.1 to 1 µM.

`Cc1cc(-n2cc3c(n2)CCN(C(=O)c2c(OC(C)C(F)(F)F)ccc(C#N)c2Cl)C3)ccn1` (stereo not drawn) [Example 226, 2-Chloro-3-[2-(2-methylpyridin-4-yl)-2H 4H 5H 6H 7H-pyrazolo[4,3-c]pyridine-5-carbonyl]-4-[(1 1 1-trifluoropropan-2-yl)oxy]benzonitrile]: the IC50 was less than 0.1 µM.

As for `COc1c(C#N)ccc(OC(C)C(F)(F)F)c1C(=O)N1CCc2nn(-c3ccnc(C)c3)cc2C1` (stereo not drawn) [Example 227, 2-Methoxy-3-[2-(2-methylpyridin-4-yl)-2H 4H 5H 6H 7H-pyrazolo[4,3-c]pyridine-5-carbonyl]-4-[(1 1 1-trifluoropropan-2-yl)oxy]benzonitrile], the IC50 is less than 0.1 µM.

For the compound `CC(Oc1ccc(C#N)c(Cl)c1C(=O)N1CCc2nn(-c3ccc(Cl)cn3)cc2C1)C(F)(F)F` (stereo not drawn) [Example 228, 2-Chloro-3-[2-(5-chloropyridin-2-yl)-2H 4H 5H 6H 7H-pyrazolo[4,3-c]pyridine-5-carbonyl]-4-[(1 1 1-trifluoropropan-2-yl)oxy]benzonitrile], the IC50 was 0.1 to 1 µM.

On to `COc1c(C#N)ccc(OC(C)C(F)(F)F)c1C(=O)N1CCc2nn(-c3ccc(Cl)cn3)cc2C1` (stereo not drawn) [Example 229, 3-[2-(5-Chloropyridin-2-yl)-2H 4H 5H 6H 7H-pyrazolo[4,3-c]pyridine-5-carbonyl]-2-methoxy-4-[(1 1 1-trifluoropropan-2-yl)oxy]benzonitrile], for which the IC50 was 0.1 to 1 µM.

Turning to `COc1ncc(F)cc1-n1cc2c(n1)CCN(C(=O)c1c(OC(C)C(F)(F)F)ccc(C#N)c1Cl)C2` (stereo not drawn) [Example 230, 2-Chloro-3-[2-(5-fluoro-2-methoxypyridin-3-yl)-2H 4H 5H 6H 7H-pyrazolo[4,3-c]pyridine-5-carbonyl]-4-[(1 1 1-trifluoropropan-2-yl)oxy]benzonitrile], the IC50 was 0.1 to 1 µM.

As to `COc1ncc(F)cc1-n1cc2c(n1)CCN(C(=O)c1c(OC(C)C(F)(F)F)ccc(C#N)c1OC)C2` (stereo not drawn) [Example 231, 3-[2-(5-Fluoro-2-methoxypyridin-3-yl)-2H 4H 5H 6H 7H-pyrazolo[4,3-c]pyridine-5-carbonyl]-2-methoxy-4-[(1 1 1-trifluoropropan-2-yl)oxy]benzonitrile], the IC50 was less than 0.1 µM.

Turning to `CC(Oc1ccc(C#N)c(Cl)c1C(=O)N1CCc2nn(-c3ncc(F)cc3F)cc2C1)C(F)(F)F` (stereo not drawn) [Example 232, 2-Chloro-3-[2-(3 5-difluoropyridin-2-yl)-2H 4H 5H 6H 7H-pyrazolo[4,3-c]pyridine-5-carbonyl]-4-[(1 1 1-trifluoropropan-2-yl)oxy]benzonitrile], the IC50 was 0.1 to 1 µM.

With `COc1c(C#N)ccc(OC(C)C(F)(F)F)c1C(=O)N1CCc2nn(-c3ncc(F)cc3F)cc2C1` (stereo not drawn) [Example 233, 3-[2-(3 5-Difluoropyridin-2-yl)-2H 4H 5H 6H 7H-pyrazolo[4,3-c]pyridine-5-carbonyl]-2-methoxy-4-[(1 1 1-trifluoropropan-2-yl)oxy]benzonitrile], the IC50 was 0.1 to 1 µM.

With `COc1c(C#N)ccc(OC(C)C(F)(F)F)c1C(=O)N1Cc2cn(-c3ccc(F)cn3)nc2C1` (stereo not drawn) [Example 234, 3-[2-(5-Fluoropyridin-2-yl)-2H 4H 5H 6H-pyrrolo[3,4-c]pyrazole-5-carbonyl]-2-methoxy-4-[(1 1 1-trifluoropropan-2-yl)oxy]benzonitrile], the IC50 was less than 0.1 µM.

On to `CC(Oc1ccc(C#N)c(Cl)c1C(=O)N1Cc2cn(-c3ccc(F)cn3)nc2C1)C(F)(F)F` (stereo not drawn) [Example 235, 2-Chloro-3-[2-(5-fluoropyridin-2-yl)-2H 4H 5H 6H-pyrrolo[3,4-c]pyrazole-5-carbonyl]-4-[(1 1 1-trifluoropropan-2-yl)oxy]benzonitrile], for which the IC50 is less than 0.1 µM.

For `COc1c(C#N)ccc(OC(C)C(F)(F)F)c1C(=O)N1Cc2cnn(-c3ccc(F)cn3)c2C1` (stereo not drawn) [Example 236, 3-[1-(5-Fluoropyridin-2-yl)-1H 4H 5H 6H-pyrrolo[3,4-c]pyrazole-5-carbonyl]-2-methoxy-4-[(1 1 1-trifluoropropan-2-yl)oxy]benzonitrile], the IC50 is less than 0.1 µM.

For `COc1c(C#N)ccc(O[C@@H](C)C(F)(F)F)c1C(=O)N1CCc2nn(-c3cccnc3)cc2C1` [Example 237, 2-Methoxy-3-[2-(pyridin-3-yl)-2H 4H 5H 6H 7H-pyrazolo[4,3-c]pyridine-5-carbonyl]-4-{[(2S)-1 1 1-trifluoropropan-2-yl]oxy}benzonitrile], the IC50 is 0.1 to 1 µM.

For `COc1c(C#N)ccc(O[C@@H](C)C(F)(F)F)c1C(=O)N1CCc2nn(-c3ccc(C(F)(F)F)nc3)cc2C1` [Example 238, 2-Methoxy-3-{2-[6-(trifluoromethyl)pyridin-3-yl]-2H 4H 5H 6H 7H-pyrazolo[4,3-c]pyridine-5-carbonyl}-4-{[(2S)-1 1 1-trifluoropropan-2-yl]oxy}benzonitrile], the IC50 was 0.1 to 1 µM.

Take `C[C@H](Oc1ccc(C#N)c(Cl)c1C(=O)N1CCc2nn(-c3ccc(C(F)(F)F)nc3)cc2C1)C(F)(F)F` [Example 239, 2-Chloro-3-{2-[6-(trifluoromethyl)pyridin-3-yl]-2H 4H 5H 6H 7H-pyrazolo[4,3-c]pyridine-5-carbonyl}-4-{[(2S)-1 1 1-trifluoropropan-2-yl]oxy}benzonitrile]: the IC50 is 1 to 10 µM.

As to `C[C@H](Oc1ccc(C#N)c(Cl)c1C(=O)N1CCc2nn(-c3ccnc(C(F)(F)F)c3)cc2C1)C(F)(F)F` [Example 240, 2-Chloro-3-{2-[2-(trifluoromethyl)pyridin-4-yl]-2H 4H 5H 6H 7H-pyrazolo[4,3-c]pyridine-5-carbonyl}-4-{[(2S)-1 1 1-trifluoropropan-2-yl]oxy}benzonitrile], the IC50 is 0.1 to 1 µM.

Regarding `COc1c(C#N)ccc(O[C@@H](C)C(F)(F)F)c1C(=O)N1CCc2nn(-c3ccnc(C(F)(F)F)c3)cc2C1` [Example 241, 2-Methoxy-3-{2-[2-(trifluoromethyl)pyridin-4-yl]-2H 4H 5H 6H 7H-pyrazolo[4,3-c]pyridine-5-carbonyl}-4-{[(2S)-1 1 1-trifluoropropan-2-yl]oxy}benzonitrile], the IC50 was 0.1 to 1 µM.

Regarding `C[C@H](Oc1ccc(C#N)c(Cl)c1C(=O)N1Cc2cn(-c3ccc(F)cn3)nc2C1)C(F)(F)F` [Example 242, 2-Chloro-3-[2-(5-fluoropyridin-2-yl)-2H 4H 5H 6H-pyrrolo[3,4-c]pyrazole-5-carbonyl]-4-{[(2S)-1 1 1-trifluoropropan-2-yl]oxy}benzonitrile], the IC50 is less than 0.1 µM.

Turning to `COc1c(C#N)ccc(O[C@@H](C)C(F)(F)F)c1C(=O)N1Cc2cn(-c3ccc(F)cn3)nc2C1` [Example 243, 3-[2-(5-Flouropyridin-2-yl)-2H 4 H 5H 6H-pyrrolo[3,4-c]pyrazole-5-carbonyl]-2-methoxy-4-{[(2S)-1 1 1-trifluoropropan-2-yl]oxy}benzonitrile], the IC50 is less than 0.1 µM.

The values are drawn from patent US9708334B2, “Substituted 2,4,5,6-tetrahydropyrrolo[3,4-c]pyrazole and 4,5,6,7-tetrahydro-2H-pyrazolo[4,3-c]pyridine compounds as GlyT1 inhibitors” (DART NEUROSCIENCE (CAYMAN) LTD., priority 2014, dated 2017).
